ChEMBL document CHEMBL5518228, “DNA Interaction and Cleavage Modes of Anthraquinone-Fused Enediynes: A Study on Tiancimycins, Yangpumicins, and Their Semisynthetic Analogues” (J Med Chem, 2024)
The source made the active and inactive calls. The rule behind the calls is not given here.

Columns and labels:
[1] = system: Calf thymus DNA; experiment: Binding affinity to calf thymus DNA assessed as change in gibbs free energy in presence of ethidium bromide by competitive binding based fluorescence spectroscopic analysis; type: nucleic-acid assay; settings: Bos taurus
[2] = system: Calf thymus DNA; experiment: Binding affinity to calf thymus DNA assessed as DNA insertion by measuring change in gibbs free energy by fluorescence spectroscopic analysis; type: nucleic-acid assay; settings: Bos taurus
[3] = system: Calf thymus DNA; experiment: Binding affinity to calf thymus DNA assessed as DNA insertion by measuring change in gibbs free energy in presence of triggered form of compound by fluorescence spectroscopic analysis; type: nucleic-acid assay; settings: Bos taurus
[4] = system: Jurkat; experiment: Cytotoxicity against human Jurkat cells incubated for 72 hrs by CCK-8 assay; type: functional, cell-based
[5] = system: A549; experiment: Cytotoxicity against human A549 cells incubated for 72 hrs by CCK-8 assay; type: functional, cell-based; settings: A549, 72 h
[6] = system: Caco-2; experiment: Cytotoxicity against human Caco-2 cells incubated for 72 hrs by CCK-8 assay; type: functional, cell-based; settings: Caco-2, 72 h
[7] = Cytotoxicity against human KPL-4 cells incubated for 72 hrs by CCK-8 assay; type: functional, cell-based; settings: KPL4, 72 h
[8] = Cytotoxicity against human NCM460 cells incubated for 72 hrs by CCK-8 assay; type: toxicity, cell-based
[9] = Cytotoxicity against human HUVEC cells incubated for 72 hrs by CCK-8 assay; type: toxicity, cell-based
[10] = system: Supercoiled DNA; experiment: Induction of supercoiled pBR322 DNA (unknown origin) cleavage assessed as relaxation of supercoiled plasmid incubated for 1 hr in presence of DTT by SYBR I Green staining based agarose gel electrophoresis analysis; type: nucleic-acid assay
[11] = system: Supercoiled DNA; experiment: Induction of supercoiled pBR322 DNA (unknown origin) cleavage at 100 nM incubated for 1 hr in presence of NADPH by agarose gel electrophoresis analysis; type: nucleic-acid assay
[12] = system: Supercoiled DNA; experiment: Induction of supercoiled pBR322 DNA (unknown origin) cleavage at 100 nM incubated for 1 hr in presence of DTT by agarose gel electrophoresis analysis; type: nucleic-acid assay
[13] = system: Supercoiled DNA; experiment: Induction of supercoiled pBR322 DNA (unknown origin) cleavage at 100 nM incubated for 1 hr in presence of GSH by agarose gel electrophoresis analysis; type: nucleic-acid assay
[14] = system: DNA; experiment: Induction of duplex DNA (unknown origin) cleavage assessed as DNA cleaved fragments at AT-rich region at 100 uM incubated for 6 hr in presence of DTT by agarose gel electrophoresis analysis; type: nucleic-acid assay
[15] = system: DNA; experiment: Induction of duplex DNA (unknown origin) cleavage assessed as DNA cleaved fragments at AT-rich region at 1 mM incubated for 6 hr in presence of DTT by agarose gel electrophoresis analysis; type: nucleic-acid assay
[16] = system: Supercoiled DNA; experiment: Induction of supercoiled pBR322 DNA (unknown origin) cleavage at 5 uM incubated for 1 hr under pH 5.5 to 9.5 condition by agarose gel electrophoresis analysis; type: nucleic-acid assay
[17] = system: Supercoiled DNA; experiment: Induction of supercoiled pBR322 DNA (unknown origin) cleavage at 5 uM incubated for 1 hr in presence of catalase under pH 7.4 condition by agarose gel electrophoresis analysis; type: nucleic-acid assay
[18] = system: Supercoiled DNA; experiment: Induction of supercoiled pBR322 DNA (unknown origin) cleavage at 5 uM incubated for 1 hr in presence of pyridine under pH 7.4 condition by agarose gel electrophoresis analysis; type: nucleic-acid assay
[19] = system: Supercoiled DNA; experiment: Induction of supercoiled pBR322 DNA (unknown origin) cleavage at 5 uM incubated for 1 hr in presence of methanol under pH 7.4 condition by agarose gel electrophoresis analysis; type: nucleic-acid assay
[20] = system: Supercoiled DNA; experiment: Induction of supercoiled pBR322 DNA (unknown origin) cleavage at 5 uM incubated for 1 hr in presence of ethanol under pH 7.4 condition by agarose gel electrophoresis analysis; type: nucleic-acid assay
[21] = system: Supercoiled DNA; experiment: Induction of supercoiled pBR322 DNA (unknown origin) cleavage at 5 uM incubated for 1 hr in presence of mannitol under pH 7.4 condition by agarose gel electrophoresis analysis; type: nucleic-acid assay
[22] = system: DNA; experiment: Induction of duplex DNA (unknown origin) cleavage assessed as DNA cleaved fragments at GC-rich region at 17.5 uM incubated for 1 hr in presence of FeSO4.7H2O by agarose gel electrophoresis analysis; type: nucleic-acid assay
[23] = system: Supercoiled DNA; experiment: Induction of supercoiled pBR322 DNA (unknown origin) cleavage at 0.5 uM incubated for 1 hr under pH 7.5 condition by agarose gel electrophoresis analysis; type: nucleic-acid assay
[24] = system: Supercoiled DNA; experiment: Induction of supercoiled pBR322 DNA (unknown origin) cleavage at 0.5 uM incubated for 1 hr in presence of pyridine under pH 7.4 condition by agarose gel electrophoresis analysis; type: nucleic-acid assay
[25] = system: Supercoiled DNA; experiment: Induction of supercoiled pBR322 DNA (unknown origin) cleavage at 0.5 uM incubated for 1 hr in presence of catalase under pH 7.4 condition by agarose gel electrophoresis analysis; type: nucleic-acid assay
[26] = system: Supercoiled DNA; experiment: Induction of supercoiled pBR322 DNA (unknown origin) cleavage at 0.5 uM incubated for 1 hr in presence of methanol under pH 7.4 condition by agarose gel electrophoresis analysis; type: nucleic-acid assay
[27] = system: Supercoiled DNA; experiment: Induction of supercoiled pBR322 DNA (unknown origin) cleavage at 0.5 uM incubated for 1 hr in presence of ethanol under pH 7.4 condition by agarose gel electrophoresis analysis; type: nucleic-acid assay
[28] = system: Supercoiled DNA; experiment: Induction of supercoiled pBR322 DNA (unknown origin) cleavage at 0.5 uM incubated for 1 hr in presence of mannitol under pH 7.4 condition by agarose gel electrophoresis analysis; type: nucleic-acid assay

| Compound | deltaG [1] | IC50 [4] | IC50 [5] | IC50 [6] | IC50 [7] | IC50 at 72 h [8] | IC50 at 72 h [9] | EC50 [10] | Activity [14] | other results |
| --- | --- | --- | --- | --- | --- | --- | --- | --- | --- | --- |
| COC1=C(C(=O)O)[C@H](C)[C@@]23O[C@]24c2cc(O)c5c(c2N[C@H]3C#C/C=C\C#CC14)C(=O)c1c(O)ccc(O)c1C5=O | 2.62 kcal/mol | – | – | – | – | – | – | – | – | deltaG [2]: -18.1 kcal/mol; deltaG [3]: -13.6 kcal/mol |
| O=C1c2ccccc2C(=O)c2c3c(cc(O)c21)[C@@]12O[C@@]1([C@H](O)CO)[C@H](C#C/C=C\C#C[C@H]2O)N3 | -8.31 kcal/mol | 0.01 nM | 0.2 nM | 5.4 nM | 0.004 nM | 0.1 nM | 0.3 nM | 83.3 nM | Active | Activity [11]: inactive; Activity [12]: Active; Activity [13]: Active |
| COc1ccc2c(c1OC)C(=O)c1c3c(cc(OC)c1C2=O)[C@@]12O[C@@]1([C@@H](C)O)[C@H](C#C/C=C\C#C[C@H]2O)N3 | – | 117 nM | 787 nM | 635 nM | 32.8 nM | 382 nM | 525 nM | > 1000 nM | – | Activity [15]: inactive |
| COc1cccc2c1C(=O)c1c(O)c3c(c(O)c1C2=O)C[C@@](O)(C(=O)CO)C[C@@H]3O[C@H]1C[C@H](N)[C@H](O)[C@H](C)O1 | -9.68 kcal/mol | – | – | – | – | – | – | – | – | – |
| COC(=O)[C@@H](O)[C@@](C)(O)[C@@]12O[C@]13c1cc(O)c4c(c1N[C@H]2C#C/C=C\C#C[C@H]3O)C(=O)c1cc(OC)ccc1C4=O | -7.99 kcal/mol | 0.1 nM | 2.8 nM | 6.8 nM | 0.5 nM | 2.8 nM | 15.5 nM | 583 nM | Active | – |
| COC(=O)[C@@H](O)[C@@](C)(O)[C@@]12O[C@]13c1cc(O)c4c(c1N[C@H]2C#C/C=C\C#C[C@H]3O)C(=O)c1c(O)c(OC)cc(-n2[nH]c(=O)n(-c3ccccc3)c2=O)c1C4=O | – | 44.7 nM | 499 nM | 613 nM | 23.7 nM | 227 nM | 946 nM | 33.2 nM | inactive | – |
| O=C1c2cccc(O)c2C(=O)c2c3c(cc(O)c21)[C@@]12O[C@@]1([C@H](O)CO)[C@H](C#C/C=C\C#C[C@H]2O)N3 | -8.41 kcal/mol | 0.02 nM | 0.2 nM | 13.5 nM | 0.01 nM | 0.2 nM | 0.8 nM | 261 nM | Active | – |
| COc1ccc2c(c1O)C(=O)c1c3c(cc(O)c1C2=O)[C@@]12O[C@@]1([C@](C)(O)[C@H](O)C(=O)O)[C@H](C#C/C=C\C#C[C@H]2O)N3 | -8.48 kcal/mol | 1 nM | 10.1 nM | 158 nM | 0.24 nM | 0.6 nM | 6.8 nM | 760 nM | – | Activity [16]: Active; Activity [17]: Active; Activity [18]: Active; Activity [19]: Active; Activity [20]: Active; Activity [21]: Active; Activity [15]: inactive |
| COc1cc(Br)c2c(c1O)C(=O)c1c3c(cc(O)c1C2=O)[C@@]12O[C@@]1([C@@H](C)O)[C@H](C#C/C=C\C#C[C@H]2O)N3 | -8.13 kcal/mol | 2.6 nM | 11 nM | 154 nM | 0.31 nM | 3.3 nM | 22.7 nM | 79 nM | Active | – |
| BLEOMYCIN | – | – | – | – | – | – | – | – | – | Activity [22]: Active |
| C[C@@H](O)C12O[C@]13c1cc(O)c4c(c1N[C@H]2C#C/C=C\C#C[C@H]3O)C(=O)c1c(O)cccc1C4=O (stereo not given in full) | -8.31 kcal/mol | 0.009 nM | 0.06 nM | 1.4 nM | 0.006 nM | 0.07 nM | 0.2 nM | 75.5 nM | Active | – |
| COC(=O)[C@@H](O)[C@@](C)(O)[C@@]12O[C@]13c1cc(O)c4c(c1N[C@H]2C#C/C=C\C#C[C@H]3O)C(=O)c1c(ccc(OC)c1O)C4=O | -8.56 kcal/mol | 0.4 nM | 0.1 nM | 0.4 nM | 0.04 nM | 0.4 nM | 0.4 nM | 248 nM | Active | Activity [23]: Active; Activity [24]: Active; Activity [25]: Active; Activity [26]: Active; Activity [27]: Active; Activity [28]: Active |
| COC1=C(C(=O)O)[C@H](C)[C@@]23O[C@]24c2cc(O)c5c(c2N[C@H]3C#C/C=C\C#CC14)C(=O)c1ccccc1C5=O | -3.79 kcal/mol | – | – | – | – | – | – | – | – | – |
